Assay results reported in the supplement of paper PMC6045584.
± gives the standard deviation of the averaged measurements.

Experiments:
MK-1775 = compound: C=CCn1c(=O)c2cnc(Nc3ccc(N4CCN(C)CC4)cc3)nc2n1-c1cccc(C(C)(C)O)n1 [MK-1775]; assay: surviving fraction relative to DMSO-only wells; higher = less growth inhibition; details: exposure time: 5 days
How it was run: (§1)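 Viability was determined by CellTiter-Glo luminescence, expressed as surviving fraction normalised to the median of DMSO-only wells. The cells were log-phase tumour cell lines seeded at 250–500 per well in 384-well plates and, after 24 hours, exposed continuously for five days to inhibitors at 0.5, 1, 5, 10, 50, 100, 500 and 1000 nM. Three screens per line were run, keeping only lines with replicate Pearson r >0.7 and median Z' >0.3.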

[1] = compound: C[C@@H]1CN(CC(=O)Nc2ccc3c(c2)Cc2cccc(-c4cc(=O)cc(N5CCOCC5)o4)c2S3)C[C@H](C)O1; assay: as above; details: exposure time: 5 days
How it was run: as §1

| Test System | surviving fraction (MK-1775; 0.5 nM) | surviving fraction (MK-1775; 1 nM) | surviving fraction (MK-1775; 5 nM) | surviving fraction (MK-1775; 10 nM) | surviving fraction (MK-1775; 50 nM) | surviving fraction (MK-1775; 100 nM) | surviving fraction (MK-1775; 500 nM) | surviving fraction (MK-1775; 1000 nM) | surviving fraction ([1]; 0.5 nM) | surviving fraction ([1]; 1 nM) | surviving fraction ([1]; 5 nM) | surviving fraction ([1]; 10 nM) | surviving fraction ([1]; 50 nM) | surviving fraction ([1]; 100 nM) | surviving fraction ([1]; 500 nM) | surviving fraction ([1]; 1000 nM) |
| --- | --- | --- | --- | --- | --- | --- | --- | --- | --- | --- | --- | --- | --- | --- | --- | --- |
| MDAMB436 BREAST | 0.978 ± 0.045 | 0.969 ± 0.028 | 0.948 ± 0.031 | 0.902 ± 0.081 | 0.79 ± 0.073 | 0.66 ± 0.023 | 0.312 ± 0.013 | 0.317 ± 0.021 | 0.892 ± 0.043 | 0.962 ± 0.095 | 0.922 ± 0.027 | 0.928 ± 0.058 | 0.858 ± 0.067 | 0.805 ± 0.068 | 0.761 ± 0.029 | 0.611 ± 0.066 |
| MDAMB453 BREAST | 1.09 ± 0.021 | 1.07 ± 0.034 | 1.13 ± 0.048 | 1.06 ± 0.052 | 1.14 ± 0.076 | 0.959 ± 0.1 | 0.214 ± 0.041 | 0.161 ± 0.021 | 1.02 ± 0.027 | 0.937 ± 0.054 | 0.994 ± 0.023 | 0.966 ± 0.035 | 0.937 ± 0.023 | 0.897 ± 0.046 | 0.9723 ± 0.0063 | 0.988 ± 0.039 |
| MDAMB468 BREAST | 1.06 ± 0.041 | 1.05 ± 0.049 | 1.07 ± 0.089 | 1.02 ± 0.043 | 1.12 ± 0.04 | 0.985 ± 0.029 | 0.259 ± 0.026 | 0.0773 ± 0.0029 | 0.975 ± 0.015 | 0.921 ± 0.024 | 0.951 ± 0.026 | 1 ± 0.025 | 0.935 ± 0.018 | 1 ± 0.091 | 0.824 ± 0.12 | 0.756 ± 0.076 |
| MFM223 BREAST | 1.16 ± 0.057 | 1.14 ± 0.04 | 1.06 ± 0.067 | 1.14 ± 0.036 | 0.958 ± 0.045 | 0.545 ± 0.05 | 0.161 ± 0.0064 | 0.192 ± 0.02 | 1.17 ± 0.17 | 1.2 ± 0.037 | 1.17 ± 0.052 | 1.19 ± 0.02 | 0.935 ± 0.1 | 0.869 ± 0.12 | 0.885 ± 0.035 | 0.794 ± 0.1 |
| MG63 BONE | 1.02 ± 0.033 | 0.999 ± 0.026 | 1.07 ± 0.027 | 1.056 ± 0.0072 | 1.06 ± 0.053 | 1 ± 0.068 | 0.244 ± 0.025 | 0.121 ± 0.0076 | 1.03 ± 0.032 | 1.03 ± 0.038 | 1.076 ± 0.0081 | 1.1 ± 0.04 | 1.06 ± 0.02 | 1.08 ± 0.028 | 0.971 ± 0.025 | 0.919 ± 0.022 |
| MHM BONE | 0.981 ± 0.02 | 0.9753 ± 0.0067 | 1.04 ± 0.015 | 1.01 ± 0.033 | 1.02 ± 0.025 | 1.03 ± 0.025 | 0.638 ± 0.013 | 0.5597 ± 0.00058 | 1.03 ± 0.024 | 1.01 ± 0.055 | 1.05 ± 0.012 | 1.05 ± 0.021 | 1.08 ± 0.0062 | 1.1 ± 0.018 | 1.08 ± 0.024 | 1.07 ± 0.032 |
| NCIH441 LUNG | 1.11 ± 0.085 | 1.04 ± 0.031 | 1.03 ± 0.029 | 0.986 ± 0.049 | 0.944 ± 0.065 | 0.794 ± 0.044 | 0.428 ± 0.057 | 0.369 ± 0.044 | 1.04 ± 0.092 | 1.03 ± 0.085 | 0.957 ± 0.1 | 1.07 ± 0.062 | 1.11 ± 0.035 | 1.11 ± 0.087 | 1.02 ± 0.056 | 1.14 ± 0.11 |
| NOS1 BONE | 0.939 ± 0.1 | 1.08 ± 0.028 | 0.945 ± 0.02 | 0.764 ± 0.039 | 0.209 ± 0.011 | 0.158 ± 0.02 | 0.223 ± 0.029 | 0.206 ± 0.036 | 1.05 ± 0.15 | 1.07 ± 0.1 | 1.12 ± 0.13 | 1.23 ± 0.13 | 1.047 ± 0.007 | 1.12 ± 0.15 | 0.818 ± 0.029 | 0.661 ± 0.057 |
